Consider 21 compounds from patent EP4644383A1 (Jiangsu Yahong Meditech Co., Ltd., priority 2022, dated 2024).

One test has as its target T1, FGFR3 (Homo sapiens, UniProt P22607).
T1 construct: FGFR3's cytoplasmic domain [436-806 (terminal) amino acids]; purchased Carna 08-135
The test can be described thus: FGFR3 kinase activity inhibition assay (LanthaScreen TR-FRET). The test is classed as biochemical. The conditions noted are these: for IC50: FGFR3 kinase, TR-FRET, read-out: IC50 (nM) FGFR3; for Selectivity (X) FGFR1/FGFR3: ratio of IC50 FGFR1/FGFR3, selectivity towards FGFR3. The method, boiled down: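 Read-out is TR-FRET, with the 520 nm/495 nm emission ratio normalised to DMSO (max) and enzyme-free (min) controls. Enzyme was the FGFR3 cytoplasmic domain, residues 436-806. EDTA (10 mM) stopped the reaction, followed by 60 min at 22 °C before reading.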
For orientation: In TR-FRET formats the signal depends on donor and acceptor labels being close together.

The target in the next test is T2, FGFR1 (Homo sapiens, UniProt P11362).
T2 construct: cytoplasmic domain [398-822 (terminal) amino acids]; purchased Carna 08-133
T2 sequence (P11362 398-822): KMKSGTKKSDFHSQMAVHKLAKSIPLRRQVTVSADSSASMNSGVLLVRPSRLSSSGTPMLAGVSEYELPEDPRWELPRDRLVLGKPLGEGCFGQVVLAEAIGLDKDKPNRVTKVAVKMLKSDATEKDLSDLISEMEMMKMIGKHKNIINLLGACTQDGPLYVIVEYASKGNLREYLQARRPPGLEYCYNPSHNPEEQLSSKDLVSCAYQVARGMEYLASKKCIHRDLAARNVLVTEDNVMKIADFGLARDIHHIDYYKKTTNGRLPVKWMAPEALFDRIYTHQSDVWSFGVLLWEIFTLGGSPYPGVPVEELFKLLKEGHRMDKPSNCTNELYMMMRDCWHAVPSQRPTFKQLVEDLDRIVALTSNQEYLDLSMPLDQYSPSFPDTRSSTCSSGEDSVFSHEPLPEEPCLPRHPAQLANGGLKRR
The test is described as follows: FGFR1 kinase activity inhibition assay (LanthaScreen TR-FRET). Format: biochemical. The conditions noted are these: FGFR1 kinase, TR-FRET; read-out: IC50 (nM) FGFR1. The method, boiled down:
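Emission ratio 520 nm/495 nm by TR-FRET after stopping reaction with 10 mM EDTA and 60 min incubation at 22°C. Inhibition normalized between no-enzyme (min) and DMSO (max) controls, then fitted to a four-parameter curve (Top, Bottom, HillSlope).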

T1 sequence (P22607 436-806): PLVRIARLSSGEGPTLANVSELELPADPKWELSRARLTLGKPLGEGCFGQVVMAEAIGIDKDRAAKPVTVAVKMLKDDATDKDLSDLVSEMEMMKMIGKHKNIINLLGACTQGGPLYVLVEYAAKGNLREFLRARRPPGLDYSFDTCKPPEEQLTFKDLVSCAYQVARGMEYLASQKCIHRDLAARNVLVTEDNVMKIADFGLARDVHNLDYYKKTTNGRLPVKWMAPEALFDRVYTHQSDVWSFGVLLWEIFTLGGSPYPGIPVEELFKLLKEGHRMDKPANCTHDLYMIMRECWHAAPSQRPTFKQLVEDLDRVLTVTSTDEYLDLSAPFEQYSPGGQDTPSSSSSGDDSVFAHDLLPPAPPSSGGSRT

Turning to `CC(Oc1ccc2[nH]nc(-c3cnn(C4CN(C(=O)C(C)(C)O)C4)c3)c2c1)c1cc(Cl)cc2nccnc12` (stereo not drawn) [Example 209, 1-(3-(4-(5-(1-(7-chloroquinoxalin-5-yl)ethoxy)-1H-indazol-3-yl)-1H-pyrazol-1-yl)azetidin-1-yl)-2-hydroxy-2-methylpropan-1-one], at FGFR3, the half-inhibitory concentration (IC50) was less than 1 nM and the “Selectivity (X) FGFR1/FGFR3” value is “B (B represents 20 ≤ multiple X<50)”. Further, on FGFR1, the half-maximal inhibitory concentration (IC50) lay within 10 to 100 nM.
The corresponding values for `CC(Oc1ccc2[nH]nc(-c3cnn(C4CN(C(=O)C(C)(C)N)C4)c3)c2c1)c1cc(Cl)cc2nccnc12` (stereo not drawn) [Example 210, 2-amino-1-(3-(4-(5-(1-(7-chloroquinoxalin-5-yl)ethoxy)-1H-indazol-3-yl)-1-pyrazol-1-yl)azetidin-1-yl)-2-methylpropan-1-one] are less than 1 nM, “A (A represents 1 ≤ multiple X<20)” and 1 to 10 nM.
The corresponding values for `CC(Oc1ccc2[nH]nc(-c3cnn(C4CN(C(=O)C(C)(C)N)C4)c3)c2c1)c1cc(Cl)cc2ncccc12` (stereo not drawn) [Example 211, 2-amino-1-(3-(4-(5-(1-(7-chloroquinolin-5-yl)ethoxy)-1H-indazol-3-yl)-1-pyrazol-1-yl)azetidin-1-yl)-2-methylpropan-1-one] are less than 1 nM, “B (B represents 20 ≤ multiple X<50)” and 10 to 100 nM.
For `CC(Oc1ccc2[nH]nc(-c3cnn(C4CN(CC(N)=O)C4)c3)c2c1)c1cccc2nccnc12` (stereo not drawn) [Example 214, 2-(3-(4-(5-(1-(quinoxalin-5-yl)ethoxy)-1H-indazol-3-yl)-1H-pyrazol-1-yl)azetidin-1-yl)acetamide], at FGFR3, the IC50 was less than 1 nM and the “Selectivity (X) FGFR1/FGFR3” value is on record as “B (B represents 20 ≤ multiple X<50)”. The half-inhibitory concentration (IC50) at FGFR1 was in the range of 10 to 100 nM.
The corresponding values for `Cc1cc(C(C)Oc2ccc3[nH]nc(-c4cnn(C5CN(C(=O)C(C)(C)N)C5)c4)c3c2)c2cccnc2c1` (stereo not drawn) [Example 215, 2-amino-2-methyl-1-(3-(4-(5-(1-(7-methylquinolin-5-yl)ethoxy)-1H-indazol-3-yl)-1H-pyrazol-1-yl)azetidin-1-yl)propan-1-one] are less than 1 nM, “B (B represents 20 ≤ multiple X<50)” and 10 to 100 nM.
The corresponding values for `CNC(C)(C)C(=O)N1CC(n2cc(-c3n[nH]c4ccc(OC(C)c5cccc6nccnc56)cc34)cn2)C1` (stereo not drawn) [Example 216, 2-methyl-2-(methylamino)-1-(3-(4-(5-(1-(quinoxalin-5-yl)ethoxy)-1H-indazol-3-yl)-1H-pyrazol-1-yl)azetidin-1-yl)propan-1-one] are less than 1 nM, “A (A represents 1 ≤ multiple X<20)” and 1 to 10 nM.
Consider `Cc1ccc2ncccc2c1C(C)Oc1ccc2[nH]nc(-c3cnn(C4CN(C(=O)C(C)(C)O)C4)c3)c2c1` (stereo not drawn) [Example 217, 2-hydroxy-2-methyl-1-(3-(4-(5-(1-(6-methylquinolin-5-yl)ethoxy)-1H-indazol-3-yl)-1H-pyrazol-1-yl)azetidin-1-yl)propan-1-one], for which, on FGFR3, the IC50 is less than 1 nM and the “Selectivity (X) FGFR1/FGFR3” value is reported as “C (C represents 50 ≤ multiple X<100)”. The IC50 on FGFR1 is 10 to 100 nM.
On to `CC(Oc1ccc2[nH]nc(-c3cnn(C4CN(C(=O)C5CC5)C4)c3)c2c1)c1cccc2nccnc12` (stereo not drawn) [Example 219, cyclopropyl(3-(4-(5-(1-(quinoxalin-5-yl)ethoxy)-1H-indazol-3-yl)-1H-pyrazol-1-yl)azetidin-1-yl)methanone], for which, on FGFR3, the concentration for half-maximal inhibition (IC50) is less than 1 nM and the “Selectivity (X) FGFR1/FGFR3” value is “A (A represents 1 ≤ multiple X<20)”. Further, the IC50 on FGFR1 lay within 10 to 100 nM.
Take `CC(Oc1ccc2[nH]nc(-c3cnn(CCCS(C)(=O)=O)c3)c2c1)c1cc(Cl)cc2nccnc12` (stereo not drawn) [Example 220, 7-chloro-5-(1-((3-(1-(3-(methylsulfonyl)propyl)-1H-pyrazol-4-yl)-1H-indazol-5-yl)oxy)ethyl)quinox aline]: the 50% inhibitory concentration (IC50) on FGFR3 is less than 1 nM; at FGFR1 it was 10 to 100 nM. Further, at FGFR3, the “Selectivity (X) FGFR1/FGFR3” value is “C (C represents 50 ≤ multiple X<100)”.
For the compound `CC(Oc1ccc2[nH]nc(-c3cnn(C4CN(C(=O)C5(O)CCC5)C4)c3)c2c1)c1cccc2nccnc12` (stereo not drawn) [Example 221, (1-hydroxycyclobutyl)(3-(4-(5-(1-(quinoxalin-5-yl)ethoxy)-1H-indazol-3-yl)-1H-pyrazol-1-yl)azetidin-1-yl)methanone], at FGFR3, the IC50 is less than 1 nM and the “Selectivity (X) FGFR1/FGFR3” value is listed as “B (B represents 20 ≤ multiple X<50)”. Besides, the IC50 at FGFR1 lay in the range of 1 to 10 nM.
The corresponding values for `CC(Oc1ccc2[nH]nc(-c3cnn(C4CN(C(=O)C5(O)CC5)C4)c3)c2c1)c1cc(Cl)cc2nccnc12` (stereo not drawn) [Example 222, (3-(4-(5-(1-(7-chloroquinoxalin-5-yl)ethoxy)-1H-indazol-3-yl)-1H-pyrazol-1-yl)azetidin-1-yl)(1-hydroxycyclopropyl)methanone] are less than 1 nM, “B (B represents 20 ≤ multiple X<50)” and 10 to 100 nM.
The corresponding values for `Cc1cc2nccnc2c(C(C)Oc2cc(F)c3[nH]nc(-c4cnn(C)c4)c3c2)n1` (stereo not drawn) [Example 225, 5-(1-((7-fluoro-3-(1-methyl-1H-pyrazol-4-yl)-1H-indazol-5-yl)oxy)ethyl)-7-methylpyridino[3,4-b]pyrazine] are less than 1 nM, “A (A represents 1 ≤ multiple X<20)” and 1 to 10 nM.
With `COc1cc(OC(C)c2cc(Cl)cc3nccnc23)cc2c(-c3cnn(C)c3)n[nH]c12` (stereo not drawn) [Example 226], at FGFR3, the IC50 fell in the range of 1 to 10 nM and the “Selectivity (X) FGFR1/FGFR3” value is “B (B represents 20 ≤ multiple X<50)”. Also, the IC50 on FGFR1 was more than 100 nM.
The corresponding values for `CC(Oc1cc(F)c2[nH]nc(-c3cnn(C)c3)c2c1)c1cc(Cl)cc2nccnc12` (stereo not drawn) [Example 228, 7-chloro-5-(1-((7-fluoro-3-(1-methyl-1H-pyrazol-4-yl)-1H-indazol-5-yl)oxy)ethyl)qu inoxaline] are 1 to 10 nM, “B (B represents 20 ≤ multiple X<50)” and 10 to 100 nM.
As to `CC(Oc1ccc2[nH]nc(-c3cnn(C4CC(S(C)(=O)=O)C4)c3)c2c1)c1cccc2nccnc12` (stereo not drawn) [Example 229, 5-(1-((3-(1-(3-(methylsulfonyl)cyclobutyl)-1H-pyrazol-4-yl)-1H-indazol-5-yl)oxy)ethyl)quinoxaline], on FGFR3, the IC50 was less than 1 nM and the “Selectivity (X) FGFR1/FGFR3” value is listed as “B (B represents 20 ≤ multiple X<50)”. Further, the half-maximal inhibitory concentration (IC50) on FGFR1 lay in the range of 10 to 100 nM.
The corresponding values for `CC(Oc1ccc2[nH]nc(-c3cnn(C)c3)c2c1)c1nc(C2CC2)cc2nccnc12` (stereo not drawn) [Example 230, 7-cyclopropyl-5-(1-((3-(1-methyl-1H-pyrazol-4-yl)-1H-indazol-5-yl)oxy)ethyl)pyri dino[3,4-b]pyrazine] are less than 1 nM, “A (A represents 1 ≤ multiple X<20)” and 1 to 10 nM.
On to `CC(Oc1ccc2[nH]nc(-c3cnn(C)c3)c2c1)c1c(C(F)F)ccc2nccnc12` (stereo not drawn) [Example 232], for which, at FGFR3, the IC50 is less than 1 nM and the “Selectivity (X) FGFR1/FGFR3” value is on record as “A (A represents 1 ≤ multiple X<20)”. Besides, the IC50 on FGFR1 fell in the range of 1 to 10 nM.
Turning to `CC(C)c1cc2nccnc2c(C(C)Oc2ccc3[nH]nc(-c4cnn(C)c4)c3c2)n1` (stereo not drawn) [Example 237], the IC50 on FGFR3 fell in the range of 1 to 10 nM; at FGFR1 it was 10 to 100 nM. Further, on FGFR3, the “Selectivity (X) FGFR1/FGFR3” value is “B (B represents 20 ≤ multiple X<50)”.
Take `CC(Oc1ccc2[nH]nc(-c3cnn(C4CN(C(=O)C5CC5)C4)c3)c2c1)c1cc(Cl)cc2nccnc12` (stereo not drawn) [Example 238, (3-(4-(5-(1-(7-chloroquinoxalin-5-yl)ethoxy)-1H-indazol-3-yl)-1H-pyrazol-1-yl)azetidin-1-yl)(cyclopropyl) methanone]: on FGFR3, the IC50 was less than 1 nM and the “Selectivity (X) FGFR1/FGFR3” value is on record as “B (B represents 20 ≤ multiple X<50)”. The IC50 at FGFR1 is 10 to 100 nM.
Turning to `CC(Oc1ccc2[nH]nc(-c3cnn(C4COC4)c3)c2c1)c1cc(Cl)cc2nccnc12` (stereo not drawn) [Example 239], the IC50 lay within 1 to 10 nM on FGFR3 and 10 to 100 nM at FGFR1. In addition, the “Selectivity (X) FGFR1/FGFR3” value at FGFR3 is on record as “C (C represents 50 ≤ multiple X<100)”.
Consider `CC(Oc1ccc2[nH]nc(-c3cnn(C4CN(C=O)C4)c3)c2c1)c1cc(Cl)cc2nccnc12` (stereo not drawn) [Example 240, 3-(4-(5-(1-(7-chloroquinoxalin-5-yl)ethoxy)-1H-indazol-3-yl)-1H-pyrazol-1-yl)azetidine-1-carbaldehyde], for which, at FGFR3, the IC50 was less than 1 nM and the “Selectivity (X) FGFR1/FGFR3” value is “B (B represents 20 ≤ multiple X<50)”. For the same compound, on FGFR1, the IC50 lay within 10 to 100 nM.

As a reminder, the IC50 is the concentration at which inhibition is half-maximal.
